# Data: the supplement of paper PMC10307832
# Experiments:
# Experiment in all cases: relative viability (nuclei count vs DMSO), 5 days (fraction); higher = more cells survive
# FG-4592 + Lapatinib = compound: Cc1nc(C(=O)NCC(=O)O)c(O)c2ccc(Oc3ccccc3)cc12 [FG-4592] + CS(=O)(=O)CCNCc1ccc(-c2ccc3ncnc(Nc4ccc(OCc5cccc(F)c5)c(Cl)c4)c3c2)o1 [Lapatinib] (partner 2 µM)
# In short: (§1)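 After 5 days of treatment, lung cancer cells in 1536-well plates were fixed and stained in a single step (final 0.05% Triton X-100, 1% formaldehyde, 1 ug/ml Hoechst) and their nuclei counted on 4× images. Treatment had been applied by pin tool the day after seeding as one drug alone or as a fixed anchor-drug dose with five library-drug doses (not always all listed) in √10 steps. Relative viability is the nuclei count of treated wells divided by that of vehicle wells, and values are medians of duplicate plates.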
# IU1-47 + Foretinib = compound: CC1=CC(=C(N1C2=CC=C(C=C2)Cl)C)C(=O)CN3CCCCC3 [IU1-47] + COc1cc2c(Oc3ccc(NC(=O)C4(C(=O)Nc5ccc(F)cc5)CC4)cc3F)ccnc2cc1OCCCN1CCOCC1 [Foretinib] (partner 0.25 µM)
# In short: as §1
# FG-4592 + Pemetrexed = compound: Cc1nc(C(=O)NCC(=O)O)c(O)c2ccc(Oc3ccccc3)cc12 [FG-4592] + Nc1nc2[nH]cc(CCc3ccc(C(=O)N[C@@H](CCC(=O)O)C(=O)O)cc3)c2c(=O)[nH]1 [Pemetrexed] (partner 0.2 µM)
# In short: as §1
# FG-4592 + OSI-027 = compound: Cc1nc(C(=O)NCC(=O)O)c(O)c2ccc(Oc3ccccc3)cc12 [FG-4592] + COc1cccc2cc(-c3nc([C@H]4CC[C@H](C(=O)O)CC4)n4ncnc(N)c34)[nH]c12 [OSI-027] (partner 0.5 µM)
# In short: as §1
Cell Line,relative viability (FG-4592 + Lapatinib; first compound 0.08 µM),relative viability (FG-4592 + Lapatinib; first compound 0.253 µM),relative viability (FG-4592 + Lapatinib; first compound 0.8 µM),relative viability (FG-4592 + Lapatinib; first compound 2.53 µM),relative viability (FG-4592 + Lapatinib; first compound 8 µM),relative viability (IU1-47 + Foretinib; first compound 0.08 µM),relative viability (IU1-47 + Foretinib; first compound 0.253 µM),relative viability (IU1-47 + Foretinib; first compound 0.8 µM),relative viability (IU1-47 + Foretinib; first compound 2.53 µM),relative viability (IU1-47 + Foretinib; first compound 8 µM),relative viability (FG-4592 + Pemetrexed; first compound 0.08 µM),relative viability (FG-4592 + Pemetrexed; first compound 0.253 µM),relative viability (FG-4592 + Pemetrexed; first compound 0.8 µM),relative viability (FG-4592 + Pemetrexed; first compound 2.53 µM),relative viability (FG-4592 + Pemetrexed; first compound 8 µM),relative viability (FG-4592 + OSI-027; first compound 0.08 µM),relative viability (FG-4592 + OSI-027; first compound 0.253 µM),relative viability (FG-4592 + OSI-027; first compound 0.8 µM),relative viability (FG-4592 + OSI-027; first compound 2.53 µM),relative viability (FG-4592 + OSI-027; first compound 8 µM)
Calu-6,1.01,1,1.12,1.08,1.07,1,1.01,0.934,0.917,0.874,,,,,,,,,,
ChaGo-K-1,,,,,,0.967,0.934,0.954,0.979,0.81,0.266,0.258,0.26,0.26,0.274,0.577,0.545,0.532,0.471,0.413
EBC-1,0.24,0.25,0.206,0.201,0.232,0.0995,0.107,0.0951,0.111,0.102,,,,,,,,,,
EKVX,0.226,0.213,0.195,0.278,0.375,1.12,1.19,0.769,0.265,0.85,0.346,0.36,0.376,0.377,0.515,0.626,0.649,0.718,0.663,0.73
